Reference: PubChem BioAssay (NCI)
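Here, GI50 denotes the concentration required for 50% inhibition of growth. TGI marks complete inhibition of growth.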

Key:
Experiment in all cases: NCI anticancer screen, dose series, 384-well format
SK-MEL-5 melanoma = tested on: SK-MEL-5 melanoma
SNB-75 CNS = tested on: SNB-75 CNS
LOX IMVI melanoma = tested on: LOX IMVI melanoma
786-0 renal = tested on: 786-0 renal
NCI-H522 lung = tested on: NCI-H522 lung
NCI-H322M lung = tested on: NCI-H322M lung
OVCAR-8 ovarian = tested on: OVCAR-8 ovarian
MDA-MB-468 breast = tested on: MDA-MB-468 breast
SF-295 CNS = tested on: SF-295 CNS
HS 578T breast = tested on: HS 578T breast
SNB-19 CNS = tested on: SNB-19 CNS
A549 NSCLC = tested on: A549 NSCLC
HCC-2998 colon = tested on: HCC-2998 colon

Compound: N#CCC1(n2cc(-c3ncnc4[nH]ccc34)cn2)CN(C2CCN(C(=O)c3ccnc(C(F)(F)F)c3F)CC2)C1
- GI50 (SK-MEL-5 melanoma): > 41.9 µM
- TGI (SK-MEL-5 melanoma): > 70.7 µM
- GI50 (SNB-75 CNS): > 58 µM
- TGI (SNB-75 CNS): > 100 µM
- GI50 (LOX IMVI melanoma): > 100 µM
- TGI (LOX IMVI melanoma): > 100 µM
- GI50 (786-0 renal): > 96.4 µM
- TGI (786-0 renal): > 100 µM
- GI50 (NCI-H522 lung): 18.4 µM
- TGI (NCI-H522 lung): 39.2 µM
- GI50 (NCI-H322M lung): > 100 µM
- TGI (NCI-H322M lung): > 100 µM
- GI50 (OVCAR-8 ovarian): > 100 µM
- TGI (OVCAR-8 ovarian): > 100 µM
- GI50 (MDA-MB-468 breast): 17.6 µM
- TGI (MDA-MB-468 breast): 50.5 µM
- GI50 (SF-295 CNS): 72.9 µM
- TGI (SF-295 CNS): > 100 µM
- GI50 (HS 578T breast): 30.9 µM
- TGI (HS 578T breast): 92.9 µM
- GI50 (SNB-19 CNS): > 100 µM
- TGI (SNB-19 CNS): > 100 µM
- GI50 (A549 NSCLC): > 61.3 µM
- TGI (A549 NSCLC): > 100 µM
- GI50 (HCC-2998 colon): > 100 µM
- TGI (HCC-2998 colon): > 100 µM

Compound: CNCc1ccc(-c2[nH]c3cc(F)cc4c3c2CCNC4=O)cc1
- GI50 (SK-MEL-5 melanoma): 6.05 µM
- TGI (SK-MEL-5 melanoma): 12.1 µM
- GI50 (SNB-75 CNS): 13.2 µM
- TGI (SNB-75 CNS): 26.4 µM
- GI50 (LOX IMVI melanoma): 13 µM
- TGI (LOX IMVI melanoma): 26 µM
- GI50 (786-0 renal): 7.97 µM
- TGI (786-0 renal): 21.3 µM
- GI50 (NCI-H522 lung): 15.6 µM
- TGI (NCI-H522 lung): 29.3 µM
- GI50 (NCI-H322M lung): 17.2 µM
- TGI (NCI-H322M lung): 32.4 µM
- GI50 (OVCAR-8 ovarian): 10.4 µM
- TGI (OVCAR-8 ovarian): 23.7 µM
- GI50 (MDA-MB-468 breast): 4.13 µM
- TGI (MDA-MB-468 breast): 11.5 µM
- GI50 (SF-295 CNS): 8.3 µM
- TGI (SF-295 CNS): 22.4 µM
- GI50 (HS 578T breast): 10.4 µM
- TGI (HS 578T breast): 22.4 µM
- GI50 (SNB-19 CNS): 19 µM
- TGI (SNB-19 CNS): > 48.4 µM
- GI50 (A549 NSCLC): 14.7 µM
- TGI (A549 NSCLC): 29.5 µM
- GI50 (HCC-2998 colon): 11.3 µM
- TGI (HCC-2998 colon): 23.8 µM
